Read-outs that look alike come from different tables or passages of the source.
Assays:
androgen receptor [1] = biological target: T1, androgen receptor (Homo sapiens (Human), UniProt P10275); conditions: for IC50: read-out: Androgen receptor IC50, receptor binding, 3H-testosterone displacement; for Androgen receptor Competition factor: reference substance 3H-testosterone
Experimental: 3. Androgen Receptor Binding Test:
The test was carried out as in 1., with the following modifications: cytosol from androgen receptor-expressing insect cells (Hi5) was used, and the reference substance was ^3H-testosterone.

[2] = biological target: T2, mineralocorticoid receptor (Homo sapiens (Human), UniProt P08235); assay: Antimineralocorticoid action by transactivation test (MDCK luciferase reporter cells); format: cell-based; conditions: in-vitro transactivation, 1 nM aldosterone; for IC50: read-out: Mineralocorticoid receptor Antagonism IC50
T2 sequence (P08235 whole entry): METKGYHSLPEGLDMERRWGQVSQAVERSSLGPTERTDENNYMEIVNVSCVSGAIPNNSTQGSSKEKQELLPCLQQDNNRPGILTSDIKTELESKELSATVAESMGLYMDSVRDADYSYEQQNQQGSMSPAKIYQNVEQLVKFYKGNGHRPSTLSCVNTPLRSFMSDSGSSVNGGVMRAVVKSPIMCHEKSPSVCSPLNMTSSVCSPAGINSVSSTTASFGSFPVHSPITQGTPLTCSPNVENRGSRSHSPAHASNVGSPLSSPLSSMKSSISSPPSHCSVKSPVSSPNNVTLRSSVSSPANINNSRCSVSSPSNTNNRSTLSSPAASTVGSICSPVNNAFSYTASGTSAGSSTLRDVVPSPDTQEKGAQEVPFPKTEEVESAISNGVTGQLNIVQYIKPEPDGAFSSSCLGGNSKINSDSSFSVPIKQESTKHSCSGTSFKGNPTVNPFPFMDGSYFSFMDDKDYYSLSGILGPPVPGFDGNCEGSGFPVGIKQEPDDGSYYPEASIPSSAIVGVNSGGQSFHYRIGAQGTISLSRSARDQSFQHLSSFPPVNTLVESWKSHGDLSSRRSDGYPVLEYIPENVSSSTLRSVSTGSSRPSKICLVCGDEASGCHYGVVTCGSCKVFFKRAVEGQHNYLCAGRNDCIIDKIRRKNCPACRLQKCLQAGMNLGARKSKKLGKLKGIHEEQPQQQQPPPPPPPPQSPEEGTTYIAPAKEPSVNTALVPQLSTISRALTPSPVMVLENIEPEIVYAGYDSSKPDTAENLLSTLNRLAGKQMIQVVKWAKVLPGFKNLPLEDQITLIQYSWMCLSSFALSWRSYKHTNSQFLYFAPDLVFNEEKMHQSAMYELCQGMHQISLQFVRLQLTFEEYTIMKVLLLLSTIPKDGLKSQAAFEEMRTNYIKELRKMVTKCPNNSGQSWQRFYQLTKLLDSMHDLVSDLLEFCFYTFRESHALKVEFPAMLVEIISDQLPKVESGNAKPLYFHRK
Experimental: 5. Determination of Antimineralocorticoid Action by Means of Transactivation Tests:
The antimineralocorticoid activity of the test substances was determined as for the transactivation tests described above.
The following modifications were undertaken: In this case reporter cell lines were used (MDCK cells) that express the human mineralocorticoid receptor, and transiently contain a reporter construct that contains luciferase under the control of a steroid hormone-responsive promoter.
For determination of antimineralocorticoid efficacy, 1 nM aldosterone (SIGMA A-6628, Lot 22H4033) was added to the cells, to achieve almost maximum stimulation of the reporter gene. Inhibition of the effect indicated a mineralocorticoid-antagonistic action of the substances (Table 2; for comparison, corresponding values for drospirenone (A)).

[3] = biological target: T2, mineralocorticoid receptor; assay: Mineralocorticoid receptor binding test (displacement of 3H-aldosterone, cytosol from Hi5 insect cells); conditions: reference substance 3H-aldosterone
Experimental: 2. Mineralocorticoid Receptor Binding Test:
The test was carried out as in 1., with the following modifications: cytosol from mineralocorticoid receptor-expressing insect cells (Hi5) was used, and the reference substance was ^3H-aldosterone.

androgen receptor [4] = biological target: T1, androgen receptor; assay: cell-based; conditions: for Androgen receptor Agonism efficacy / Androgen receptor Antagonism efficacy: in-vitro transactivation, PC3 cells; for Androgen receptor Antagonism efficacy: 0.05 nM R1881
Experimental: 6. Determination of Androgenic/Antiandrogenic Action by Means of Transactivation Tests:
The androgenic/antiandrogenic action of the test substances was determined as for the transactivation tests described above.
The following modifications were made: In this case reporter cell lines were used (PC3 cells) that express the androgen receptor, and a reporter construct that contains luciferase under the control of a steroid hormone-responsive promoter.
For determination of the antiandrogenic efficacy, 0.05 nM R1881 was added to the cells, in order to achieve almost maximum stimulation of the reporter gene.

progesterone receptor = progesterone receptor (Homo sapiens (Human), UniProt P06401); conditions: for Progesterone receptor (PR) Competition factor: CF of 1 = affinity of progesterone, CF >1 lower affinity; for IC50: read-out: Progesterone receptor (PR) IC50, receptor binding, 3H-progesterone displacement; for CF PR/CF MR: ratio of the competition factors CF(PR) and CF(MR)
progesterone receptor, sequence (P06401 whole entry, species assumed, the tested form may be a part): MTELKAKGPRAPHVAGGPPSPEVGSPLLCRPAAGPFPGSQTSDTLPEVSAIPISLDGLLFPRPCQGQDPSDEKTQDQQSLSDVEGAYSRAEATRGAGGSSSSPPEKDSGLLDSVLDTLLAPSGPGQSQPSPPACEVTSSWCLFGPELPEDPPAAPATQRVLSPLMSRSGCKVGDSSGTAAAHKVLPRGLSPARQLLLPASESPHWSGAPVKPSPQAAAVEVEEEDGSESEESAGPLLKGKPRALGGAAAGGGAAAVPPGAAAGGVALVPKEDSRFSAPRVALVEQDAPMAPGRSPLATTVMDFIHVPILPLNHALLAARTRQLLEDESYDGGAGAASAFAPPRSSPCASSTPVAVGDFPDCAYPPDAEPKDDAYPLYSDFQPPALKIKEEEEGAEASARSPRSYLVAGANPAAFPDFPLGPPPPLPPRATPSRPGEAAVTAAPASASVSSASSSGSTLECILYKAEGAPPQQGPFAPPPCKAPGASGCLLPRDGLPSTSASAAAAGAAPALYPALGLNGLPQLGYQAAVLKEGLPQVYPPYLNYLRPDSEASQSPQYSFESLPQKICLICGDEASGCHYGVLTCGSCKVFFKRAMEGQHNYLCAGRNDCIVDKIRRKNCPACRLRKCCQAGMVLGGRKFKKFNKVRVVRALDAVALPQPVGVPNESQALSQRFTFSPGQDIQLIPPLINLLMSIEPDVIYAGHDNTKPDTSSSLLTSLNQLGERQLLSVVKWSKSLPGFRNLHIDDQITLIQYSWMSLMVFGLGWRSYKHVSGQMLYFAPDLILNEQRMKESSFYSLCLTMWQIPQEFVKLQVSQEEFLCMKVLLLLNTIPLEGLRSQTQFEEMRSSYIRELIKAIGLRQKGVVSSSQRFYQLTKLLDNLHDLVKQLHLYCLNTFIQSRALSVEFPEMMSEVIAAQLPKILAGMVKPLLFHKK
Experimental: Progesterone Receptor Binding Test:
Using cytosol from progesterone receptor-expressing insect cells (Hi5), competitive binding to the progesterone receptor was determined from the ability to displace ^3H-progesterone as reference substance from the receptor.

[5] = biological target: fusion protein from the PR-ligand-binding domain and a Gal4-transactivation domain (Homo sapiens (Human), UniProt P06401); assay: cell-based; conditions: for Progesterone receptor Agonism efficacy / Progesterone receptor Agonism EC50: in-vitro transactivation, CHO K1 reporter cells; for Progesterone receptor Agonism EC50: 16 hours
fusion protein from the PR-ligand-binding domain and a Gal4-transactivation domain, sequence (P06401 679-913): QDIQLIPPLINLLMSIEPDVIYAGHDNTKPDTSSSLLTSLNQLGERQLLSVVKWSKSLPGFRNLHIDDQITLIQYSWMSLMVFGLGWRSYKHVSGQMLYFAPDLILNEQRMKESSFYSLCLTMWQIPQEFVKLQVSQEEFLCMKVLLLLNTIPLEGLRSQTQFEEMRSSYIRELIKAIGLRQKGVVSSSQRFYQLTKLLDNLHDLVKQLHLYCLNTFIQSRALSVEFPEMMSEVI
Experimental: 4. Determination of Progestational Action by Means of Transactivation Tests:
The test compounds were added eight hours later, and the cells were incubated with the compounds for 16 hours. The tests were carried out in triplicate. At the end of incubation the medium containing the effector was removed and replaced with lysis buffer. After luciferase assay substrate (Promega, #E1501) had been added, the 96-well plates were then put in a microplate luminometer (Pherastar, BMG Labtech), and the luminescence was measured. The IC50 values were evaluated using software for calculating dose-effect relations.

T1 sequence (P10275 whole entry, species assumed): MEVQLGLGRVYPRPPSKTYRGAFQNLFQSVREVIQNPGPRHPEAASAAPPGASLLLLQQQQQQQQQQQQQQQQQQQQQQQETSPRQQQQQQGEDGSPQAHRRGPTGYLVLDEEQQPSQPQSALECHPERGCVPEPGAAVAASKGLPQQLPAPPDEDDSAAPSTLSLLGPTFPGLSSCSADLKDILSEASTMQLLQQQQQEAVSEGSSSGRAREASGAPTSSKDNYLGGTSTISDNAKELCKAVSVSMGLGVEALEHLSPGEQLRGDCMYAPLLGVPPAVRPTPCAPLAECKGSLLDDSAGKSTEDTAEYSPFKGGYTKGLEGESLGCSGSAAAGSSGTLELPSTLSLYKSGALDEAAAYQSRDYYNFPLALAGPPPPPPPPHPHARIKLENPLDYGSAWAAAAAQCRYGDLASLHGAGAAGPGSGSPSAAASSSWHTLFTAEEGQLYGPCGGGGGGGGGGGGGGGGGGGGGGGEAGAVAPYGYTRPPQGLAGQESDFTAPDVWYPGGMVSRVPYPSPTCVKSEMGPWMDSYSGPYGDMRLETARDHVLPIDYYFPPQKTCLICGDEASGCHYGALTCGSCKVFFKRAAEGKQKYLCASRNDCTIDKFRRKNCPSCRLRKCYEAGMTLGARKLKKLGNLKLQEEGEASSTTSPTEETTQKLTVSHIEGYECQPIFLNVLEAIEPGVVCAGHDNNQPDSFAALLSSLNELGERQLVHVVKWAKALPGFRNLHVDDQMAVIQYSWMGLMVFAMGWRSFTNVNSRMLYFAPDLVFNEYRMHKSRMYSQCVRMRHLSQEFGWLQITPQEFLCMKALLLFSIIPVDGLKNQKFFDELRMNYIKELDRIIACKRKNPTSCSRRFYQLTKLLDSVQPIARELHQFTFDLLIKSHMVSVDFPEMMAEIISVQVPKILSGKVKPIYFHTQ

| Compound | IC50 (androgen receptor [1]) [nM] | Androgen receptor Competition factor (androgen receptor [1]) | Mineralocorticoid receptor Antagonism efficacy [2] [%] | IC50 [2] [nM] | Mineralocorticoid receptor (MR) Competition factor [3] | EC50 (androgen receptor [4]) [nM] | IC50 (androgen receptor [4]) [nM] | Androgen receptor Agonism efficacy (androgen receptor [4]) [%] | Androgen receptor Antagonism efficacy (androgen receptor [4]) [%] | Progesterone receptor (PR) Competition factor (progesterone receptor) | IC50 (progesterone receptor) [nM] | EC50 [5] [nM] | Progesterone receptor Agonism efficacy [5] [%] | CF PR/CF MR (progesterone receptor) | Progesterone receptor Agonism EC50 [5] | Mineralocorticoid receptor Antagonism IC50 [2] |
| --- | --- | --- | --- | --- | --- | --- | --- | --- | --- | --- | --- | --- | --- | --- | --- | --- |
| C[C@]12CC[C@H]3[C@@H](C=CC4=CC(=O)CC[C@@H]43)[C@@H]1CC[C@@]21C=CC(=O)O1 (stereo in doubt) [Example 1, 17β-Hydroxy-19-nor-17α-pregna-4,6,20(Z)-trien-3-one-21-carboxylic acid γ-lactone] | 10000 | 1000.0 | 93.2 | 870 | 33.0 | 130 | 1000 | 44.27 | 5 | – | – | – | – | – | – | – |
| C[C@@H]1CC2=CC(=O)CC[C@@H]2[C@H]2CC[C@@]3(C)[C@@H](CC[C@@]34C=CC(=O)O4)[C@@H]21 (stereo in doubt) [Example 2A, 17β-Hydroxy-7α-methyl-19-nor-17α-pregna-4,20(Z)-dien-3-one-21-carboxylic acid γ-lactone] | – | – | 129.8 | 180 | 7.6 | – | – | – | – | 8.33 | 310 | 220 | 44.4 | – | – | – |
| CC[C@@H]1CC2=CC(=O)CC[C@@H]2[C@H]2CC[C@@]3(C)[C@@H](CC[C@@]34C=CC(=O)O4)[C@H]12 (stereo in doubt) [Example 3A, 17β-Hydroxy-7α-ethyl-19-nor-17α-pregna-4,20(Z)-dien-3-one-21-carboxylic acid γ-lactone] | 89 | 2.8 | 55.9 | 360 | 8.7 | 25 | 11 | 30.25 | 41.26 | 54.22 | 1300 | 780 | 16.2 | 6.23 | – | – |
| C=C[C@@H]1CC2=CC(=O)CC[C@@H]2[C@H]2CC[C@@]3(C)[C@@H](CC[C@@]34C=CC(=O)O4)[C@@H]21 (stereo in doubt) [Example 4A, 17β-Hydroxy-7α-vinyl-19-nor-17α-pregna-4,20(Z)-dien-3-one-21-carboxylic acid γ-lactone] | 130 | 4.7 | 120.0 | 28 | 18.7 | 13 | 1000 | 53.6 | 5 | 27.47 | 760 | 140 | 67.5 | 1.47 | – | – |
| C[C@]12CC[C@H]3[C@@H](CCC4=CC(=O)CC[C@@H]43)[C@@H]1CC1(CC1)[C@@]21C=CC(=O)O1 (stereo in doubt) [Example 5, 16,16-(1,2-Ethanediyl)-17β-hydroxy-19-nor-17α-pregna-4,20(Z)-dien-3-one-21-carboxylic acid γ-lactone] | 310 | 33.8 | 73.1 | 840 | 12.7 | 140 | 1000 | 37.8 | 5 | 3.31 | 110 | 13 | 46.9 | 0.26 | – | – |
| CC[C@]12CC[C@H]3[C@@H](CCC4=CC(=O)CC[C@@H]43)[C@@H]1CC[C@@]21C=CC(=O)O1 (stereo in doubt) [Example 6, 17β-Hydroxy-18-methyl-19-nor-17α-pregna-4,20(Z)-dien-3-one-21-carboxylic acid γ-lactone] | 28 | 3.4 | 109.6 | 12 | 2.4 | 53 | 19 | 59.8 | 33.8 | 3.07 | 45 | – | – | 1.28 | – | – |
| CC[C@]12CC[C@H]3[C@@H](C=CC4=CC(=O)CC[C@@H]43)[C@@H]1CC[C@@]21C=CC(=O)O1 (stereo in doubt) [Example 7, 17β-Hydroxy-18-methyl-19-nor-17α-pregna-4,6,20(Z)-trien-3-one-21-carboxylic acid γ-lactone] | 2600 | 112.0 | 94.2 | 100 | 3.9 | 1000 | 100 | 5 | 59.23 | 6.15 | 110 | – | – | 1.58 | inactive | – |
| CC[C@]12CC[C@H]3[C@@H]([C@H](C)CC4=CC(=O)CC[C@@H]43)[C@@H]1CC[C@@]21C=CC(=O)O1 (stereo in doubt) [Example 8A, 17β-Hydroxy-7α,18-dimethyl-19-nor-17α-pregna-4,20(Z)-dien-3-one-21-carboxylic acid γ-lactone] | 43 | 1.3 | 113.8 | 11 | 1.0 | 1.7 | 1000 | 78.75 | 5 | 5.95 | 160 | – | – | 5.95 | inactive | – |
| C[C@]12CCC(=O)C=C1[C@@H]1C[C@@H]1[C@H]1[C@@H]3[C@@H]4C[C@@H]4[C@@]4(CCC(=O)O4)[C@@]3(C)CC[C@@H]12 [A, 6β,7β;15γ,16β-dimethylene-3-oxo-17-pregn-4-ene-21,17β-carbolactone, reference compound] | – | – | 64.1 | – | – | – | – | – | – | – | – | – | 72.2 | – | – | – |
| CC[C@]12CC[C@H]3[C@@H](C[C@@H](CO)C4=CC(=O)CC[C@@H]43)[C@@H]1CC[C@@]21C=CC(=O)O1 [Example 15] | – | – | – | – | – | 1000 | 1000 | 5 | 5 | – | – | – | – | – | inactive | inactive |
| CC[C@]12CC[C@H]3[C@@H](CC4(CC4)C4=CC(=O)CC[C@@H]43)[C@@H]1CC[C@@]21C=CC(=O)O1 [Example 16, 6,6-(1,2-Ethanediyl)-17β-hydroxy-18-methyl-19-nor-17α-pregna-4,20(Z)-dien-3-one-21-carboxylic acid γ-lactone] | – | – | 107.9 | 75 | – | 1.1 | 1000 | 91.19 | 5 | – | – | – | – | – | – | – |
| C[C@]12CC[C@H]3[C@@H](C[C@@H](CO)C4=CC(=O)CC[C@@H]43)[C@@H]1CC[C@@]21C=CC(=O)O1 [Example 17, 17β-Hydroxy-6β-hydroxymethylene-19-nor-17α-pregna-4,20(Z)-dien-3-one-21-carboxylic acid γ-lactone] | – | – | – | – | – | – | – | – | – | – | – | – | – | – | inactive | inactive |
| C[C@]12CC[C@H]3[C@@H](CC4(CC4)C4=CC(=O)CC[C@@H]43)[C@@H]1CC[C@@]21C=CC(=O)O1 [Example 18, 6,6-(1,2-Ethanediyl)-17β-hydroxy-19-nor-17α-pregna-4,20(Z)-dien-3-one-21-carboxylic acid γ-lactone] | – | – | 89.3 | 520 | – | 3.7 | 1000 | 87.91 | 5 | – | – | – | – | – | – | – |

From patent publication US8937058B2, “17-hydroxy-19-nor-21-carboxylic acid-steroid γ-lactone derivative, use thereof, and medicament containing the derivative” (priority 2007, dated 2015)
